Test results published in patent US11357779B2 (G1 Therapeutics, Inc., priority 2018, dated 2022).

Test: Adverse events by CTCAE grade and frequency, all dosing cohorts
Assay type: in vivo, human
From the text: Patients were enrolled into 1 of 2 parallel, independently operating, dose-escalation dosing cohorts with Form B of Compound II administered continuously either once daily (QD) or twice daily (BID) with food with fixed-dose fulvestrant (intramuscularly every 14 days for the first three injections and then every 28 days). Pre- or perimenopausal patients also received goserelin for the duration of study treatment. A […] agonist was started at least 28 days before the first dose of Form B, and those patients who were taking another LHRH agonist were switched to goserelin on Day 1. Patients were split into […] cohorts providing once a day (QD) dosing of 200 mg, 300 mg, 400 mg, 500 mg, or 650 mg of Form B, or twice a day (BID) dosing of 100 mg, 150 mg, or 200 mg of Form B. The second dose in BID cohorts was not administered in the evening until at least 12 hours after the initial morning dose of Form B. The dosing cohorts for Form B of Compound II are provided in Table 1.

[1] = Dose 100 mg BID, adverse event frequency
[2] = Dose 150 mg BID, adverse event frequency
[3] = Dose 200 mg BID, adverse event frequency
[4] = Dose 200 mg QD, adverse event frequency
[5] = Dose 300 mg QD, adverse event frequency
[6] = Dose 400 mg QD, adverse event frequency
[7] = Dose 500 mg QD, adverse event frequency
[8] = Dose 650 mg QD, adverse event frequency
[9] = Total, all dosing cohorts, All Grades, frequency
[10] = Total, all dosing cohorts, CTCAE Grade 1, frequency
[11] = Total, all dosing cohorts, CTCAE Grade 2, frequency
[12] = Total, all dosing cohorts, CTCAE Grade 3, frequency
[13] = Total, all dosing cohorts, CTCAE Grade 4, frequency

## CC(C)N1CCN(c2ccc(Nc3ncc4cc5n(c4n3)C3(CCCCC3)CNC5=O)nc2)CC1 [Form B]
[1]
  ALT increase: 0
  AST increased: 0
  Anemia: 2
  BUN increased: 0
  Diarrhea: 1
  Fatigue: 1
  Febrile neutropenia: 0
  GGT increased: 0
  Hematuria: 1
  Leukopenia: 3
  Lymphopenia: 0
  Metrorrhagia: 0
  Nausea: 2
  Neutropenia: 4
  SCr increased: 1
  Stomatitis: 0
  Thrombocytopenia: 1
  Vomiting: 0
[2]
  ALT increase: 0
  AST increased: 0
  Anemia: 1
  BUN increased: 0
  Diarrhea: 2
  Fatigue: 1
  Febrile neutropenia: 1
  GGT increased: 0
  Hematuria: 1
  Leukopenia: 3
  Lymphopenia: 0
  Metrorrhagia: 1
  Nausea: 1
  Neutropenia: 3
  SCr increased: 0
  Stomatitis: 1
  Thrombocytopenia: 1
  Vomiting: 1
[3]
  ALT increase: 0
  AST increased: 0
  Anemia: 0
  BUN increased: 0
  Diarrhea: 1
  Fatigue: 1
  Febrile neutropenia: 0
  GGT increased: 0
  Hematuria: 0
  Leukopenia: 1
  Lymphopenia: 0
  Metrorrhagia: 0
  Nausea: 1
  Neutropenia: 2
  SCr increased: 0
  Stomatitis: 0
  Thrombocytopenia: 0
  Vomiting: 0
[4]
  ALT increase: 0
  AST increased: 0
  Anemia: 3
  BUN increased: 1
  Diarrhea: 1
  Fatigue: 0
  Febrile neutropenia: 0
  GGT increased: 0
  Hematuria: 1
  Leukopenia: 4
  Lymphopenia: 1
  Metrorrhagia: 0
  Nausea: 0
  Neutropenia: 4
  SCr increased: 0
  Stomatitis: 0
  Thrombocytopenia: 0
  Vomiting: 0
[5]
  ALT increase: 0
  AST increased: 0
  Anemia: 1
  BUN increased: 1
  Diarrhea: 2
  Fatigue: 1
  Febrile neutropenia: 0
  GGT increased: 0
  Hematuria: 1
  Leukopenia: 2
  Lymphopenia: 0
  Metrorrhagia: 0
  Nausea: 2
  Neutropenia: 3
  SCr increased: 0
  Stomatitis: 0
  Thrombocytopenia: 1
  Vomiting: 2
[6]
  ALT increase: 1
  AST increased: 1
  Anemia: 2
  BUN increased: 0
  Diarrhea: 2
  Fatigue: 2
  Febrile neutropenia: 0
  GGT increased: 1
  Hematuria: 1
  Leukopenia: 0
  Lymphopenia: 0
  Metrorrhagia: 0
  Nausea: 3
  Neutropenia: 3
  SCr increased: 0
  Stomatitis: 0
  Thrombocytopenia: 1
  Vomiting: 3
[7]
  ALT increase: 1
  AST increased: 0
  Anemia: 2
  BUN increased: 0
  Diarrhea: 1
  Fatigue: 1
  Febrile neutropenia: 0
  GGT increased: 0
  Hematuria: 0
  Leukopenia: 1
  Lymphopenia: 0
  Metrorrhagia: 0
  Nausea: 3
  Neutropenia: 3
  SCr increased: 1
  Stomatitis: 0
  Thrombocytopenia: 3
  Vomiting: 1
[8]
  ALT increase: 0
  AST increased: 0
  Anemia: 0
  BUN increased: 0
  Diarrhea: 4
  Fatigue: 1
  Febrile neutropenia: 0
  GGT increased: 0
  Hematuria: 0
  Leukopenia: 2
  Lymphopenia: 0
  Metrorrhagia: 0
  Nausea: 3
  Neutropenia: 2
  SCr increased: 0
  Stomatitis: 0
  Thrombocytopenia: 0
  Vomiting: 5
[9]
  ALT increase: 2
  AST increased: 1
  Anemia: 11
  BUN increased: 2
  Diarrhea: 14
  Fatigue: 8
  Febrile neutropenia: 1
  GGT increased: 1
  Hematuria: 5
  Leukopenia: 16
  Lymphopenia: 1
  Metrorrhagia: 1
  Nausea: 15
  Neutropenia: 24
  SCr increased: 2
  Stomatitis: 1
  Thrombocytopenia: 7
  Vomiting: 12
[10]
  ALT increase: 1
  AST increased: 0
  Anemia: 3
  BUN increased: 2
  Diarrhea: 6
  Fatigue: 5
  Febrile neutropenia: 0
  GGT increased: 0
  Hematuria: 5
  Leukopenia: 4
  Lymphopenia: 0
  Metrorrhagia: 0
  Nausea: 8
  Neutropenia: 6
  SCr increased: 2
  Stomatitis: 0
  Thrombocytopenia: 5
  Vomiting: 5
[11]
  ALT increase: 1
  AST increased: 1
  Anemia: 2
  BUN increased: 0
  Diarrhea: 8
  Fatigue: 3
  Febrile neutropenia: 0
  GGT increased: 1
  Hematuria: 0
  Leukopenia: 9
  Lymphopenia: 1
  Metrorrhagia: 1
  Nausea: 7
  Neutropenia: 7
  SCr increased: 0
  Stomatitis: 1
  Thrombocytopenia: 2
  Vomiting: 3
[12]
  ALT increase: 0
  AST increased: 0
  Anemia: 1
  BUN increased: 0
  Diarrhea: 0
  Fatigue: 0
  Febrile neutropenia: 1
  GGT increased: 0
  Hematuria: 0
  Leukopenia: 3
  Lymphopenia: 0
  Metrorrhagia: 0
  Nausea: 0
  Neutropenia: 9
  SCr increased: 0
  Stomatitis: 0
  Thrombocytopenia: 0
  Vomiting: 0
[13]
  ALT increase: 0
  AST increased: 0
  Anemia: 0
  BUN increased: 0
  Diarrhea: 0
  Fatigue: 0
  Febrile neutropenia: 0
  GGT increased: 0
  Hematuria: 0
  Leukopenia: 0
  Lymphopenia: 0
  Metrorrhagia: 0
  Nausea: 0
  Neutropenia: 2
  SCr increased: 0
  Stomatitis: 0
  Thrombocytopenia: 0
  Vomiting: 0
